Experimental data: PubChem BioAssay AID330 (DTP/NCI, 2004)
“And” between values parts separate entries of the source, which are not always exact repeats. Identical values can stand only once. Toxic doses and inconclusive results are not listed.

Test system: P388 leukemia ip, CD2F1 mice, survival T/C
Test: NCI In Vivo Anticancer Drug Screen. Data for tumor model P388 Leukemia (intraperitoneal) in CD2F1 (CDF1) mice
Conditions: endpoint: median survival time, higher = longer survival
How it was run: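 Mice carrying the transplanted tumor received test compound or vehicle. Survival was recorded in each group, and the value is the treated-group measurement divided by that of the vehicle-treated control group.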

[1] = dose: 50.0 mg/kg/injection, schedule: Q01DX009 (ip), vehicle: Klucel (hydroxypropylcellulose) (HPC)
[2] = dose: 100.0 mg/kg/injection, schedule: Q01DX009 (ip), vehicle: Klucel (hydroxypropylcellulose) (HPC)
[3] = dose: 25.0 mg/kg/injection, schedule: Q01DX009 (ip), vehicle: saline
[4] = dose: 50.0 mg/kg/injection, schedule: Q01DX009 (ip), vehicle: saline
[5] = dose: 100.0 mg/kg/injection, schedule: Q01DX009 (ip), vehicle: saline
[6] = dose: 50.0 mg/kg/injection, schedule: Q01DX005 (ip), vehicle: saline
[7] = dose: 200.0 mg/kg/injection, schedule: Q01DX005 (ip), vehicle: saline
[8] = dose: 200.0 mg/kg/injection, schedule: Q01DX009 (ip), vehicle: saline
[9] = dose: 100.0 mg/kg/injection, schedule: Q01DX005 (ip), vehicle: saline
[10] = dose: 50.0 mg/kg/injection, schedule: Q01DX005 (ip), vehicle: saline with Tween-80
[11] = dose: 100.0 mg/kg/injection, schedule: Q01DX005 (ip), vehicle: saline with Tween-80
[12] = dose: 200.0 mg/kg/injection, schedule: Q01DX005 (ip), vehicle: saline with Tween-80
[13] = dose: 6.25 mg/kg/injection, schedule: Q01DX009 (ip), vehicle: saline with Tween-80
[14] = dose: 12.5 mg/kg/injection, schedule: Q01DX009 (ip), vehicle: saline with Tween-80
[15] = dose: 25.0 mg/kg/injection, schedule: Q01DX009 (ip), vehicle: saline with Tween-80
[16] = dose: 25.0 mg/kg/injection, schedule: Q04DX003 (ip), vehicle: saline
[17] = dose: 50.0 mg/kg/injection, schedule: Q01DX009 (ip), vehicle: saline with Tween-80
[18] = dose: 100.0 mg/kg/injection, schedule: Q01DX009 (ip), vehicle: saline with Tween-80
[19] = dose: 200.0 mg/kg/injection, schedule: Q01DX009 (ip), vehicle: saline with Tween-80
[20] = dose: 100.0 mg/kg/injection, schedule: Q04DX003 (ip), vehicle: saline
[21] = dose: 200.0 mg/kg/injection, schedule: Q04DX003 (ip), vehicle: saline

In the case of `CC(=O)NC(C)(C(C)=O)c1ccccc1` (configuration not stated), the T/C (dose: 60.0 mg/kg/injection, schedule: Q01DX005 (ip), vehicle: saline) is reported as 102 % of control, the T/C (dose: 120.0 mg/kg/injection, schedule: Q01DX005 (ip), vehicle: saline) is reported as 107 % of control and the T/C (dose: 240.0 mg/kg/injection, schedule: Q01DX005 (ip), vehicle: saline) is reported as 110 % of control.

In the case of `NC(=O)c1ccc(=S)[nH]c1`, the T/C (dose: 12.5 mg/kg/injection, schedule: Q01DX009 (ip), vehicle: Klucel (hydroxypropylcellulose) (HPC)) is reported as 106 % of control, the T/C (dose: 25.0 mg/kg/injection, schedule: Q01DX009 (ip), vehicle: Klucel (hydroxypropylcellulose) (HPC)) is reported as 103 % of control and the T/C [1] is reported as 97 % of control. The T/C [2] was 103 % of control.

In the case of `CCCCC(CC)(CC(=N)C(C)(C)C)c1ccccc1` (configuration not stated), the T/C (dose: 50.0 mg/kg/injection, schedule: Q01DX009 (ip), vehicle: saline + alcohol) is reported as 111 % of control, the T/C (dose: 100.0 mg/kg/injection, schedule: Q01DX009 (ip), vehicle: saline + alcohol) is reported as 103 % of control and the T/C (dose: 200.0 mg/kg/injection, schedule: Q01DX009 (ip), vehicle: saline + alcohol) is reported as 119 % of control.

`CC1(C)N=C(N)N=C(N)N1c1ccc(OCC(=O)N2CCOCC2)c(Cl)c1` was tested, and the T/C [3] was 109 % of control, the T/C [4] was 116 % of control and the T/C [5] was 107 % of control. For the same molecule, the T/C (dose: 100.0 mg/kg/injection, schedule: Q04DX003 (ip), vehicle: saline sonified) was 113 % of control.

`COC(=O)C1C(=O)COC1C` (configuration not stated) was tested, and the T/C [6] was 102 % of control and the T/C [7] was 102 % of control.

`CC(N)CN1CC(C)N=C1c1ccncc1` (configuration not stated) was tested, and the T/C [4] was 102 % of control, the T/C [5] was 98 % of control and the T/C [8] was 99 % of control.

`O=C1C=C(N2CCN(CCO)CC2)C(=O)c2c(N3CCN(CCO)CC3)cc(N3CCN(CCO)CC3)nc21` was tested, and the T/C [6] was 97 % of control, the T/C [9] was 93 % of control and the T/C [7] was 93 % of control.

In the case of `Cc1ccc(S(=O)(=O)c2ccc(Sc3cccc[n+]3[O-])c3nonc23)cc1`, the T/C (dose: 6.25 mg/kg/injection, schedule: Q01DX009 (ip), vehicle: saline) is reported as 103 % of control, the T/C (dose: 12.5 mg/kg/injection, schedule: Q01DX009 (ip), vehicle: saline) is reported as 116 % of control and the T/C (dose: 12.5 mg/kg/injection, schedule: Q01DX009 (ip), vehicle: suspension in saline) is reported as 110 % of control. The T/C [3] was 100 % of control, the T/C (dose: 25.0 mg/kg/injection, schedule: Q01DX009 (ip), vehicle: suspension in saline) was 121 % of control and the T/C [4] was 103 % of control.

`c1cnc2c3cnc4sccc4c3nn2c1` was tested, and the T/C (dose: 100.0 mg/kg/injection, schedule: Q04DX002 (ip), vehicle: saline with Tween-80) was 93 % of control, the T/C (dose: 200.0 mg/kg/injection, schedule: Q04DX002 (ip), vehicle: saline with Tween-80) was 88 % of control and the T/C (dose: 400.0 mg/kg/injection, schedule: Q04DX002 (ip), vehicle: saline with Tween-80) was 93 % of control.

In the case of `NC(CSSCC(N)C(=O)NCC(=O)O)C(=O)NCC(=O)O` (configuration not stated), the T/C [6] is reported as 106 % of control, the T/C [9] is reported as 100 % of control and the T/C [7] is reported as 104 % of control.

`CC(=O)OC1C(=O)C2C(CC=C3CC(O)CC(O)C32C)C2CCC(C(C)C3CC(C)C(C)(C)O3)C12C` (configuration not stated) was tested, and the T/C [4] was 97 % of control, the T/C (dose: 100.0 mg/kg/injection, schedule: Q01DX001 (ip), vehicle: Klucel (hydroxypropylcellulose) (HPC)) was 100 % of control and the T/C [5] was 101 % of control. The T/C (dose: 200.0 mg/kg/injection, schedule: Q01DX001 (ip), vehicle: Klucel (hydroxypropylcellulose) (HPC)) was 97 % of control, the T/C [8] was 94 % of control and the T/C (dose: 400.0 mg/kg/injection, schedule: Q01DX001 (ip), vehicle: Klucel (hydroxypropylcellulose) (HPC)) was 96 % of control.

`Nc1nccc([N+](=O)[O-])n1` was tested, and the T/C [4] was 97 % of control, the T/C [5] was 99 % of control and the T/C [8] was 100 % of control.

In the case of `Cc1nn(C(=S)S)c(C)c1N=Nc1cccc(F)c1`, the T/C [10] is reported as 117 % of control, the T/C [11] is reported as 111 % of control and the T/C [12] is reported as 106 % of control.

In the case of `CC(=O)C(=CN(C)c1ccc([N+](=O)[O-])cc1)C(C)=O`, the T/C [13] is reported as 111 % of control, the T/C [14] is reported as 92 % of control and the T/C [15] is reported as 100 % of control. The T/C [5] was 91 % of control and the T/C [8] was 91 % of control.

In the case of `CS(=O)(=O)OCCN(CCOS(C)(=O)=O)c1ccccc1`, the T/C (dose: 1.56 mg/kg/injection, schedule: Q04DX003 (ip), vehicle: saline) is reported as 109 % of control, the T/C (dose: 3.13 mg/kg/injection, schedule: Q04DX003 (ip), vehicle: saline) is reported as 104 % of control and the T/C [13] is reported as 154 % of control. For the same molecule, the T/C (dose: 6.25 mg/kg/injection, schedule: Q04DX003 (ip), vehicle: saline) was 122 % of control, the T/C [14] was 200 % of control and the T/C [15] was 181 % of control. For the same molecule, the T/C [3] was 204 % of control, the T/C [16] was 204 % of control and the T/C [4] was 90 % of control.

For `COC(=O)C1Cc2c([nH]c3ccccc23)C2CCC(=O)N12` (configuration not stated), the T/C [1] was 108 % of control, the T/C [2] was 100 % of control and the T/C (dose: 200.0 mg/kg/injection, schedule: Q01DX009 (ip), vehicle: Klucel (hydroxypropylcellulose) (HPC)) was 104 % of control.

With `O=C1NC(=O)C2(O)NC(=O)NC2(O)N1` (configuration not stated) the T/C (dose: 25.0 mg/kg/injection, schedule: Q01DX005 (ip), vehicle: saline) was 100 % of control, the T/C [6] was 106 % of control and the T/C [9] was 101 % of control. For the same molecule, the T/C [7] was 116 % of control and the T/C (dose: 400.0 mg/kg/injection, schedule: Q01DX005 (ip), vehicle: saline) was 116 % of control.

`COc1cc(/C=C2\SC(=S)N(C3CC3)C2=O)ccc1O` was tested, and the T/C [4] was 97 % of control, the T/C [5] was 107 % of control and the T/C [8] was 104 % of control and 91 % of control.

`CCCCC(=O)N1C(=O)/C(=C\N(C)C)c2cc(C=O)ccc21` was tested, and the T/C [17] was 90 % of control, the T/C [18] was 90 % of control and the T/C [19] was 90 % of control.

`CCCC(=O)ON(C)C(=O)CCC` was tested, and the T/C [11] was 96 % of control, the T/C [12] was 105 % of control and the T/C (dose: 400.0 mg/kg/injection, schedule: Q01DX005 (ip), vehicle: saline with Tween-80) was 117 % of control.

In the case of `OCCSc1c(Cl)c(Cl)c(Cl)c(Cl)c1Cl`, the T/C [18] is reported as 106 % of control and the T/C [19] is reported as 113 % of control.

`O=C(O)C(=O)O.O=N[O-].[Co+3].[NH-]CC[N-]CC[NH-]` was tested, and the T/C [15] was 108 % of control and the T/C [17] was 108 % of control.

For `C=C(COC(=O)Nc1cc(Cl)ccc1C)C(=O)O`, the T/C [1] was 105 % of control.

`COc1cc2c(cc1OC)[C@H]1C(=O)c3cc4c(cc3[C@H]1N(C)C2=O)OCO4` was tested, and the T/C (dose: 12.5 mg/kg/injection, schedule: Q01DX005 (ip), vehicle: distilled water + Tween-80) was 94 % of control, the T/C (dose: 25.0 mg/kg/injection, schedule: Q01DX005 (ip), vehicle: distilled water + Tween-80) was 96 % of control and the T/C (dose: 50.0 mg/kg/injection, schedule: Q01DX005 (ip), vehicle: distilled water + Tween-80) was 91 % of control.

With `CC(C)=CCC1=C(O)c2ccccc2C(=O)C1=O` the T/C (dose: 75.0 mg/kg/injection, schedule: Q01DX010 (ip), vehicle: other) was 120 % of control, the T/C [5] was 118 % of control and the T/C (dose: 100.0 mg/kg/injection, schedule: Q01DX010 (ip), vehicle: other) was 110 % of control. For the same molecule, the T/C [20] was 110 % of control, the T/C (dose: 125.0 mg/kg/injection, schedule: Q01DX010 (ip), vehicle: other) was 120 % of control and the T/C [8] was 118 % of control. The T/C [21] was 115 % of control, the T/C (dose: 400.0 mg/kg/injection, schedule: Q01DX009 (ip), vehicle: saline) was 95 % of control and the T/C (dose: 400.0 mg/kg/injection, schedule: Q04DX003 (ip), vehicle: saline) was 120 % of control.

With `COc1ccc(/C(CC2(O)C(=O)Nc3c(C)cc(Cl)cc32)=N\NC(=O)C(=O)NN)cc1` (configuration not stated) the T/C [10] was 106 % of control, the T/C [11] was 98 % of control and the T/C [12] was 96 % of control.

`CC(=O)O/N=C/c1ccccn1` was tested, and the T/C [16] was 94 % of control, the T/C (dose: 50.0 mg/kg/injection, schedule: Q04DX003 (ip), vehicle: saline) was 89 % of control and 94 % of control and the T/C [20] was 100 % of control. For the same molecule, the T/C [21] was 98 % of control and 100 % of control.

For `Nc1nnnn1CCCl`, the T/C [10] was 94 % of control, the T/C [11] was 103 % of control and the T/C [12] was 106 % of control.

`O=C(OC1(c2nccc3ccccc23)CCCN(Cc2ccccc2)C1)c1ccccc1` (configuration not stated) was tested, and the T/C [17] was 106 % of control, the T/C [18] was 109 % of control and the T/C [19] was 104 % of control.
